According to patent US20060240049A1, “Anti-protozoal compositions comprising diclazuril” (priority 2003, published 2006):

What was measured:
[1] = in water; cited from earlier work
[2] = Stability of sodium diclazuril in aqueous solution; type: physicochemical; conditions: degrades into its keto-degradant

## N#CC(c1ccc(Cl)cc1)c1c(Cl)cc(-n2ncc(=O)[nH]c2=O)cc1Cl (centres unmarked) [diclazuril]
[1]
  aqueous solubility, saturation concentration: below 1 μg/L

## N#CC(c1ccc(Cl)cc1)c1c(Cl)cc(-n2ncc(=O)[n-]c2=O)cc1Cl.[Na+] (centres unmarked) [sodium diclazuril]
[2]
  stability in an aqueous solution: unstable
